# Source: ChEMBL document CHEMBL1154382, “Preliminary SAR analysis of novel antiproliferative N(6),5'-bis-ureidoadenosine derivatives” (2009)
# Key:
# Assay type in all cases: functional
# Details in all cases: values are per cent of control
# OVCAR-4 = experiment: Antiproliferative activity against human OVCAR4 cells at 10 uM assessed as cell growth inhibition relative to control
# A549 = experiment: Antiproliferative activity against human A549 cells at 10 uM assessed as cell growth inhibition relative to control
# KM12 = experiment: Antiproliferative activity against human KM12 cells at 10 uM assessed as cell growth inhibition relative to control
# 786-0 = experiment: Antiproliferative activity against human 786-0 cells at 10 uM assessed as cell growth inhibition relative to control
# Malme-3M = experiment: Antiproliferative activity against human MALME-3M cells at 10 uM assessed as cell growth inhibition relative to control
# HCC 2998 = experiment: Antiproliferative activity against human HCC2998 cells at 10 uM assessed as cell growth inhibition relative to control
# NCI-H460 = experiment: Antiproliferative activity against human NCI-H460 cells at 10 uM assessed as cell growth inhibition relative to control
# [1] = Antiproliferative activity against human Hs 578T cells at 10 uM assessed as cell growth inhibition relative to control
# M14 = experiment: Antiproliferative activity against human M14 cells at 10 uM assessed as cell growth inhibition relative to control
# NCI-H322M = experiment: Antiproliferative activity against human NCI-H322M cells at 10 uM assessed as cell growth inhibition relative to control
# SF-539 = experiment: Antiproliferative activity against human SF539 cells at 10 uM assessed as cell growth inhibition relative to control
# SN12C = experiment: Antiproliferative activity against human SN12C cells at 10 uM assessed as cell growth inhibition relative to control
# COLO 205 = experiment: Antiproliferative activity against human COLO205 cells at 10 uM assessed as cell growth inhibition relative to control
# DU-145 = experiment: Antiproliferative activity against human DU145 cells at 10 uM assessed as cell growth inhibition relative to control
# SNB-75 = experiment: Antiproliferative activity against human SNB75 cells at 10 uM assessed as cell growth inhibition relative to control
# UO-31 = experiment: Antiproliferative activity against human UO31 cells at 10 uM assessed as cell growth inhibition relative to control
# CAKI-1 = experiment: Antiproliferative activity against human Caki1 cells at 10 uM assessed as cell growth inhibition relative to control
# SNB-19 = experiment: Antiproliferative activity against human SNB19 cells at 10 uM assessed as cell growth inhibition relative to control
# PC-3 = experiment: Antiproliferative activity against human PC3 cells at 10 uM assessed as cell growth inhibition relative to control
# HCT-116 = experiment: Antiproliferative activity against human HCT116 cells at 10 uM assessed as cell growth inhibition relative to control
# SF-295 = experiment: Antiproliferative activity against human SF295 cells at 10 uM assessed as cell growth inhibition relative to control
# U-251 = experiment: Antiproliferative activity against human U251 cells at 10 uM assessed as cell growth inhibition relative to control
# NCI-H226 = experiment: Antiproliferative activity against human NCI-H226 cells at 10 uM assessed as cell growth inhibition relative to control
# OVCAR-5 = experiment: Antiproliferative activity against human OVCAR5 cells at 10 uM assessed as cell growth inhibition relative to control
# OVCAR-8 = experiment: Antiproliferative activity against human OVCAR8 cells at 10 uM assessed as cell growth inhibition relative to control
# HOP-92 = experiment: Antiproliferative activity against human HOP92 cells at 10 uM assessed as cell growth inhibition relative to control
# SK-OV-3 = experiment: Antiproliferative activity against human SKOV3 cells at 10 uM assessed as cell growth inhibition relative to control
# MOLT-4 = experiment: Antiproliferative activity against human MOLT4 cells at 10 uM assessed as cell growth inhibition relative to control
# [2] = Antiproliferative activity against human […] cells at 10 uM assessed as cell growth inhibition relative to control
# OVCAR-3 = experiment: Antiproliferative activity against human OVCAR-3 cells at 10 uM assessed as cell growth inhibition relative to control
# LOX IMVI = experiment: Antiproliferative activity against human LOXIMVI cells at 10 uM assessed as cell growth inhibition relative to control
# SF-268 = experiment: Antiproliferative activity against human SF268 cells at 10 uM assessed as cell growth inhibition relative to control
# IGROV-1 = experiment: Antiproliferative activity against human IGROV1 cells at 10 uM assessed as cell growth inhibition relative to control
# BT-549 = experiment: Antiproliferative activity against human BT549 cells at 10 uM assessed as cell growth inhibition relative to control
# A498 = experiment: Antiproliferative activity against human A498 cells at 10 uM assessed as cell growth inhibition relative to control
# EKVX = experiment: Antiproliferative activity against human EKVX cells at 10 uM assessed as cell growth inhibition relative to control
# HT-29 = experiment: Antiproliferative activity against human HT-29 cells at 10 uM assessed as cell growth inhibition relative to control
# SW-620 = experiment: Antiproliferative activity against human SW620 cells at 10 uM assessed as cell growth inhibition relative to control
# TK-10 = experiment: Antiproliferative activity against human TK10 cells at 10 uM assessed as cell growth inhibition relative to control
# HCT-15 = experiment: Antiproliferative activity against human HCT15 cells at 10 uM assessed as cell growth inhibition relative to control
# MDA-MB-231 = experiment: Antiproliferative activity against human MDA-MB-231 cells at 10 uM assessed as cell growth inhibition relative to control
# T47D = experiment: Antiproliferative activity against human T47D cells at 10 uM assessed as cell growth inhibition relative to control
# UACC-62 = experiment: Antiproliferative activity against human UACC62 cells at 10 uM assessed as cell growth inhibition relative to control
# SK-MEL-28 = experiment: Antiproliferative activity against human SK-MEL-28 cells at 10 uM assessed as cell growth inhibition relative to control
# RXF 393 = experiment: Antiproliferative activity against human RXF393 cells at 10 uM assessed as cell growth inhibition relative to control
# HL-60(TB) = experiment: Antiproliferative activity against human HL-60(TB) cells at 10 uM assessed as cell growth inhibition relative to control
# MCF7 = experiment: Antiproliferative activity against human MCF7 cells at 10 uM assessed as cell growth inhibition relative to control
# HOP-62 = experiment: Antiproliferative activity against human HOP62 cells at 10 uM assessed as cell growth inhibition relative to control
# UACC-257 = experiment: Antiproliferative activity against human UACC257 cells at 10 uM assessed as cell growth inhibition relative to control
# K562 = experiment: Antiproliferative activity against human K562 cells at 10 uM assessed as cell growth inhibition relative to control
# SK-MEL-2 = experiment: Antiproliferative activity against human SK-MEL-2 cells at 10 uM assessed as cell growth inhibition relative to control
# MDA-MB-468 = experiment: Antiproliferative activity against human MDA-MB-468 cells at 10 uM assessed as cell growth inhibition relative to control
# NCI-H23 = experiment: Antiproliferative activity against human NCI-H23 cells at 10 uM assessed as cell growth inhibition relative to control
# SK-MEL-5 = experiment: Antiproliferative activity against human SK-MEL-5 cells at 10 uM assessed as cell growth inhibition relative to control
# NCI-H522 = experiment: Antiproliferative activity against human NCI-H522 cells at 10 uM assessed as cell growth inhibition relative to control
# ACHN = experiment: Antiproliferative activity against human ACHN cells at 10 uM assessed as cell growth inhibition relative to control
# CCRF-CEM = experiment: Antiproliferative activity against human CCRF-CEM cells at 10 uM assessed as cell growth inhibition relative to control
compound,measurement,setting,value
CCOC(=O)C[C@H]1[C@@H](O[Si](C)(C)C(C)(C)C)[C@H](n2cnc3c(N)ncnc32)O[C@@H]1CNC(=O)NC,"growth, % of control at 10 µM",OVCAR-4,99%
same,"growth, % of control at 10 µM",A549,84%
same,"growth, % of control at 10 µM",KM12,103%
same,"growth, % of control at 10 µM",786-0,93%
same,"growth, % of control at 10 µM",Malme-3M,95%
same,"growth, % of control at 10 µM",HCC 2998,84%
same,"growth, % of control at 10 µM",NCI-H460,111%
same,"growth, % of control at 10 µM",[1],98%
same,"growth, % of control at 10 µM",M14,106%
same,"growth, % of control at 10 µM",NCI-H322M,94%
same,"growth, % of control at 10 µM",SF-539,97%
same,"growth, % of control at 10 µM",SN12C,88%
same,"growth, % of control at 10 µM",COLO 205,117%
same,"growth, % of control at 10 µM",DU-145,98%
same,"growth, % of control at 10 µM",SNB-75,86%
same,"growth, % of control at 10 µM",UO-31,87%
same,"growth, % of control at 10 µM",CAKI-1,96%
same,"growth, % of control at 10 µM",SNB-19,99%
same,"growth, % of control at 10 µM",PC-3,98%
same,"growth, % of control at 10 µM",HCT-116,100%
same,"growth, % of control at 10 µM",SF-295,101%
same,"growth, % of control at 10 µM",U-251,98%
same,"growth, % of control at 10 µM",NCI-H226,99%
same,"growth, % of control at 10 µM",OVCAR-5,87%
same,"growth, % of control at 10 µM",OVCAR-8,100%
same,"growth, % of control at 10 µM",HOP-92,94%
same,"growth, % of control at 10 µM",SK-OV-3,110%
same,"growth, % of control at 10 µM",MOLT-4,108%
same,"growth, % of control at 10 µM",[2],98%
same,"growth, % of control at 10 µM",OVCAR-3,98%
same,"growth, % of control at 10 µM",LOX IMVI,92%
same,"growth, % of control at 10 µM",SF-268,97%
same,"growth, % of control at 10 µM",IGROV-1,97%
same,"growth, % of control at 10 µM",BT-549,85%
same,"growth, % of control at 10 µM",A498,109%
same,"growth, % of control at 10 µM",EKVX,92%
same,"growth, % of control at 10 µM",HT-29,111%
same,"growth, % of control at 10 µM",SW-620,96%
same,"growth, % of control at 10 µM",TK-10,101%
same,"growth, % of control at 10 µM",HCT-15,97%
same,"growth, % of control at 10 µM",MDA-MB-231,96%
same,"growth, % of control at 10 µM",T47D,95%
same,"growth, % of control at 10 µM",UACC-62,80%
same,"growth, % of control at 10 µM",SK-MEL-28,107%
same,"growth, % of control at 10 µM",RXF 393,138%
same,"growth, % of control at 10 µM",HL-60(TB),107%
same,"growth, % of control at 10 µM",MCF7,87%
same,"growth, % of control at 10 µM",HOP-62,84%
same,"growth, % of control at 10 µM",UACC-257,86%
same,"growth, % of control at 10 µM",K562,106%
same,"growth, % of control at 10 µM",SK-MEL-2,91%
same,"growth, % of control at 10 µM",MDA-MB-468,92%
same,"growth, % of control at 10 µM",NCI-H23,97%
same,"growth, % of control at 10 µM",SK-MEL-5,94%
same,"growth, % of control at 10 µM",NCI-H522,79%
same,"growth, % of control at 10 µM",ACHN,90%
same,"growth, % of control at 10 µM",CCRF-CEM,98%
